Experimental data: US6630490B2, “Methods for treatment of disease-induced peripheral neuropathy and related conditions” (NeoTherapeutics, Inc., priority 2000, dated 2003)

Legend:
[1] = system: unoperated rats, mDCN-T13 heat, pinch and touch fields; test: Nociceptive nerve sprouting in normally innervated skin (mDCN-T13 field mapping); type: in vivo, rat
Source text: (§1) “Isolation” of sensory fields: This procedure, the initial step in the study of collateral sprouting and was done as described in Diamond et al. (1992). Its purpose was to isolate the cutaneous innervation territory, or field, of a selected nerve within a vast surround of denervated back skin. The nerve used was the medial branch of the left dorsal cutaneous nerve (DCN), at segmental level T13 (mDCN-T13). The isolation of its field was achieved by surgically eliminating on the left side the 4 DCNs immediately rostral and caudal to DCN-T13 (respectively T9-T12 and L1-L4), the lateral branch of DCN-T13, and the 4 lateral cutaneous nerves supplying the flank skin adjacent to the DCN-T13 territory.
(§2) Mapping of sensory fields: As described in Nixon et al. (1984) and Doucette and Diamond (1987), the borders of the isolated mechano-nociceptive and heat-nociceptive fields, subserved respectively by the Aδ and C fibers mDCN-T13, were determined by systematically applying across the skin forceps pinches (for mechano-nociception) and brief applications of a 60° C. heat probe (for heat-nociception); the presence of nociceptive endings is indicated during these procedures when the stimuli elicit the “CTM reflex” response, a contraction of the underlying cutaneus trunci muscle, which causes a characteristic and easily recognized skin twitch (Theriault and Diamond, 1988). The low-threshold (“touch”) fields were measured electrophysiologically as described by Jackson and Diamond (1984). The DCN-T13 was placed across bipolar platinum electrodes that fed into a preamplifier and thence to an oscilloscope and audio amplifier. Brushing innervated skin with a fine bristle generates impulses in the large myelinated Aβ axons, producing audible responses that disappear abruptly as the bristle crosses into denervated territory. The areas of the cutaneous territories of the three sensory modalities studied (“pinch”, “heat” and “touch”) were measured using the MCID image analysis system (Imaging Research, Inc., St. Catharines, Ontario, Canada). […]

[2] = system: rats with isolated mDCN-T13 field; test: Collateral sprouting of nociceptive nerves into adjacent denervated skin; type: in vivo, rat
Source text: as §1, §2

[3] = system: rats with isolated mDCN-T13 field receiving anti-NGF; test: Sprouting blocked by anti-NGF treatment, rescue by AIT-082; type: in vivo, rat
Source text: as §1
Mapping of sensory fields: As described in Nixon et al. (1984) and Doucette and Diamond (1987), the borders of the isolated mechano-nociceptive and heat-nociceptive fields, subserved respectively by the Aδ and C fibers mDCN-T13, were determined by systematically applying across the skin forceps pinches (for mechano-nociception) and brief applications of a 60° C. heat probe (for heat-nociception); the presence of nociceptive endings is indicated during these procedures when the stimuli elicit the “CTM reflex” response, a contraction of the underlying cutaneus trunci muscle, which causes a characteristic and easily recognized skin twitch (Theriault and Diamond, 1988). […]

unoperated animals [4] = test: Detection of hyperalgesia; type: in vivo, rat
Protocol: Detection of hyperalgesia: Nociceptive responses were studied in lightly restrained animals as described in […] et al. (1999), using the latency of foot withdrawal from a 49° C. footbath, the temperature of the footbath at which withdrawal was initiated, and the heat thresholds for evoking the “CTM” reflex from back skin (see above). Hyperalgesia is defined here as a lowering of the threshold of a nociceptive stimulus required to produce a reflex response, and/or a reduction in the latency of that response. Administration of AIT-082: AIT-082 was obtained from NeoTherapeutics Inc., Irvine, Calif., USA. A 50 mg/ml solution in sterile 0.9% NaCl was made up freshly every three days. The standard administration protocol was a daily i.p. injection of 50 mg/kg AIT-082.

[5] = system: control and diabetic rats, sciatic nerve; test: Sensory nerve conduction velocity (SNCV) in control and diabetic rats; type: in vivo, rat
Protocol: (§3) Induction of diabetes: Female, adult, Sprague-Dawley rats (250-275 g) were fasted overnight prior to the intraperitoneal injection of a freshly made solution of streptozotocin in 0.9% saline to deliver a dose of 50 mg/kg body weight. Food was restored and animals left for 3 days before determination of glucose levels in a blood sample obtained by tail prick. Animals with blood glucose levels >15 mmol/l were considered diabetic and used in the study. Treatment with the AIT-082 began on the day that hyperglycemia was confirmed. […] If they presented as diabetic then they were added to the study, if not they were omitted.
Nerve Conduction Velocity (NCV): Rats were anesthetized with halothane (4% in O2 for induction, 2-3% for maintenance) and the sciatic nerve exposed via an incision in the flank followed by separation of underlying musculature by blunt dissection. A thermistor probe was placed adjacent to the nerve and the wound closed with a skin clamp and a second, rectal, probe was positioned. Nerve and rectal temperature was maintained at 37° C. by a heating lamp and thermal pad connected to a temperature regulator and the thermistor probes. […] The distance between the two sites of stimulation was measured using surface calipers and NCV calculated as […]. NCV measurements were made in triplicate and the median used to represent the NCV. The thermistor probes were removed, the skin incision closed with wound clips and coated with Betadine and the animal withdrawn from halothane and monitored until it recovers consciousness. Rats were then returned to their cages with free access to food and water.

[6] = system: control and diabetic rats; test: Thermal response latency in control and diabetic rats; type: in vivo, rat; conditions: for thermal hyperalgesia (week 4) and hypoalgesia (week 8): diabetic rats
Protocol: as §3
Thermal response latency: Rats were placed in an observation chamber on the surface (floor temperature 30° C.) of a modified Hargreaves Apparatus (UARD, San Diego Calif.) and allowed to acclimate for 5 minutes. For measurement of thermal response latency, a heat source (delivering 4.5 amps to give a paw withdrawal latency of approximately 10 seconds in control rats) was maneuvered underneath the hind paw. The heat source was turned on manually and a stop clock activated until it shut off automatically when the paw was moved (24 sec cut off time). The procedure was repeated 4 times on the same paw at 5 minute intervals and the median of values 2-4 used to represent the thermal response latency.

[7] = system: control and diabetic rats; test: Formalin test in control and diabetic rats; type: in vivo, rat
Protocol: as §3
Formalin test: Rats were restrained manually and formalin (50 μl of 0.2% solution) injected sub-dermally into the hindpaw dorsum. Rats were then placed in an observation chamber and flinching behaviors counted in 1 minute blocks every 5 minutes for 1 hour.

[8] = system: unoperated rats, mDCN-T13 heat, pinch and touch fields; conditions: systemically injected NGF; Diamond et al., 1992; Pertens et al., 1999; cited from earlier work
unoperated animals [9] = conditions: rat, in vivo; cited from earlier work
[10] = unoperated rats, 50 mg/kg daily for 20 days, versus saline

O=C(CCn1cnc2c(=O)[nH]cnc21)Nc1ccc(C(=O)O)cc1 [AIT-082, N-4-carboxyphenyl-3-(6-oxohydropurin-9-yl) propanamide]
limited dose-response study for inducing nociceptive sprouting ([1]; daily i.p. injection of 50 mg/kg, not illustrated): well above threshold for inducing nociceptive sprouting, but below saturating levels | nociceptive fields, pinch and heat (area of innervation) [1, 10]: expanded significantly | touch fields (NGF-insensitive Aβ fibers) [1, 10]: unaffected | amount by which field expansions in the AIT-082 sprouting group exceeded controls ([2]; after 20 days of treatment, comparison from raw data of FIGS. 1 and 2): approximately equal to the expansion in field areas induced in unoperated animals | expansion of nociceptive fields into adjacent denervated skin relative to control group ([2]; daily AIT-082 after field isolation, mapping every 3 or 4 days): increased expansion of the nociceptive fields | time at which increased field expansion became apparent ([2]; daily AIT-082 versus saline): about 13 days post-isolation | sprouting under supra-threshold ("high") anti-NGF treatment ([3]; daily AIT-082 plus about 5-fold anti-NGF dose, fields after 22 days): sprouting continued to be absent | sprouting under threshold ("low") anti-NGF treatment ([3]; daily AIT-082 plus daily anti-NGF, pinch and heat fields after 22 days): totally rescued the sprouting | hyperalgesia, threshold temperature for foot withdrawal from a hot probe (unoperated animals [4]; FIG. 4(a)): does not cause hyperalgesia | hyperalgesia, threshold temperature for evoking the CTM reflex in dorsal skin (unoperated animals [4]; FIG. 4(b)): does not cause hyperalgesia | hyperalgesia, latency of foot withdrawal from a 49° C. hot bath (unoperated animals [4]; FIG. 4(c)): does not cause hyperalgesia | hyperalgesia (a number of recognized tests) (unoperated animals [4]; standard AIT-082 administration, at any time during or following treatment): failed to provide any evidence for the occurrence of this phenomenon | SNCV ([5]; control rats): no effect | SNCV deficit ([5]; diabetic rats, week 4): no effect | SNCV ([5]; diabetic rats, week 8): dose-dependent improvement | thermal response latency ([6]; control rats): without effect | thermal hyperalgesia (week 4) and hypoalgesia (week 8) [6]: dose-dependently prevented both hyperalgesia and hypoalgesia | thermal hyperalgesia (week 4) and hypoalgesia (week 8) ([6]; high dose 100 mg/kg): completely prevented both hyperalgesia at week 4 and hypoalgesia at week 8 | formalin-evoked flinching ([7]; control and diabetic rats): dose-dependently reduced | formalin-evoked hyperalgesia by phase ([7]; diabetic rats): suppression of hyperalgesia was notable in phases 1, Q, and 2a

NGF: nerve growth factor, exogenous, systemically injected
sprouting in normal skin [8]: induces sprouting in normal skin | hyperalgesia (unoperated animals [9]): causes hyperalgesia
